{"source": "paper PMC2233835", "about": "(The Journal of General Physiology, 2001)", "assay_in_all_cases": "Macroscopic current dose–response in inside-out patches from Xenopus oocytes", "key": {"X-βR/αC": {"biological_target": "T1, X-βR/αC (Bos taurus, UniProt Q00194, A200G/A344S/A378F/A555S/A582V/A614G/C169F/D157S/D193E/D502E/D538A/D577E/D604Q/DEL101-144/DEL91-95/E147F/E148K/E189Q/E196F/E230D/E231L/F201L/F214C/F374V/F533Y/G160D/G591K/I156V/I181L/I182V/I235R/I504V/I530V/I566L/I609E/I611V/INS98[…]/K146T/K150R/K151W/K237N/K239I/K346C/K506R/K518R/K521Q/K554M/K590Q/K596R/K598R/L195F/L199V/L210I/L351F/L548I/M175L/M213T/M580R/M592V/M602R/N161D/N165Y/N610S/N613A/P158Q/P173A/Q599E/Q97T/R232A/R345F/R369K/S192D/S205C/S240R/S350C/S371E/S537G/S540L/S553N/T162I/T171A/T179I/T217L/T364M/T584S/V153G/V154F/V174S/V208I/V215I/V487E/V497T/V534A/Y194N/Y197L)", "T1 sequence (Q00194 with tags, fused parts or gaps DEL91-95/Q97T/INS98[…]/DEL101-144/K146T/E147F/E148K/K150R/K151W/V153G/V154F/I156V/D157S/P158Q/G160D/N161D/T162I/N165Y/C169F/T171A/P173A/V174S/M175L/T179I/I181L/I182V/E189Q/S192D/D193E/Y194N/L195F/E196F/Y197L/L199V/A200G/F201L/S205C/V208I/L210I/M213T/F214C/V215I/T217L/E230D/E231L/R232A/I235R/K237N/K239I/S240R/A344S/R345F/K346C/S350C/L351F/T364M/R369K/S371E/F374V/A378F/V487E/V497T/D502E/I504V/K506R/K518R/K521Q/I530V/F533Y/V534A/S537G/D538A/S540L/L548I/S553N/K554M/A555S/I566L/D577E/M580R/A582V/T584S/K590Q/G591K/M592V/K596R/K598R/Q599E/M602R/D604Q/I609E/N610S/I611V/N613A/A614G)": "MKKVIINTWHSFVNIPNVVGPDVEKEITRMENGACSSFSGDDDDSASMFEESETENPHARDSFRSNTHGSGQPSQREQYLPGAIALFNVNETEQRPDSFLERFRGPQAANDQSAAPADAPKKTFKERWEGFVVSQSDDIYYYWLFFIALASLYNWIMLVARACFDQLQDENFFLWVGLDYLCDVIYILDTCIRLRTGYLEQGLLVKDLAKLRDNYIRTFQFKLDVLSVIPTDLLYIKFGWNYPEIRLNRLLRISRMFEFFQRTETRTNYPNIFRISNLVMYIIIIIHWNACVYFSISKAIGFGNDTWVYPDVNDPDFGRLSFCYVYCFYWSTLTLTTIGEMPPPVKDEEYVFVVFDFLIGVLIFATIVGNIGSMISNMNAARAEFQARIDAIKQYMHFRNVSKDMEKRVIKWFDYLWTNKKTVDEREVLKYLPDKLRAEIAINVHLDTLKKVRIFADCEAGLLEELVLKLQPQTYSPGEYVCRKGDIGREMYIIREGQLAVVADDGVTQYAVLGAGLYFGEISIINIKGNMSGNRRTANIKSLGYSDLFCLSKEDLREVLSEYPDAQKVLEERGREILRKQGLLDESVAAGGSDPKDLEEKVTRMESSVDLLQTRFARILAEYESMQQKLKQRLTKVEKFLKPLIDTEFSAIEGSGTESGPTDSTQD", "assay_type": "cell-based, chimera of bovine CNG1, catfish CNG2 and rat CNG5"}, "X-αR/βC": {"biological_target": "T2, X-αR/βC (Bos taurus, UniProt Q00194, A200G/A344S/A378F/A555M/A612E/C169F/D157S/D193E/D538A/D588Q/D604M/DEL101-144/DEL91-95/E147F/E148K/E189Q/E196F/E230D/E231L/F201L/F214C/F374V/G160D/G591A/G605N/I156V/I181L/I182V/I235R/I530V/I609V/I611A/INS98[…]/K146T/K150R/K151W/K237N/K239I/K346C/K506R/K521Q/K551Q/K564R/K590Q/K598R/L195F/L199V/L210I/L351F/L583V/L593M/L606K/M175L/M213T/M592V/M602L/N161D/N165Y/N613A/P158Q/P173A/Q494R/Q599E/Q97T/R232A/R345F/R369K/R512K/S192D/S205C/S240R/S350C/S371E/S537T/S540G/T162I/T171A/T179I/T217L/T364M/T584A/V153G/V154F/V174S/V208I/V215I/V534A/V535L/Y194N/Y197L/Y541C)", "T2 sequence (Q00194 with tags, fused parts or gaps DEL91-95/Q97T/INS98[…]/DEL101-144/K146T/E147F/E148K/K150R/K151W/V153G/V154F/I156V/D157S/P158Q/G160D/N161D/T162I/N165Y/C169F/T171A/P173A/V174S/M175L/T179I/I181L/I182V/E189Q/S192D/D193E/Y194N/L195F/E196F/Y197L/L199V/A200G/F201L/S205C/V208I/L210I/M213T/F214C/V215I/T217L/E230D/E231L/R232A/I235R/K237N/K239I/S240R/A344S/R345F/K346C/S350C/L351F/T364M/R369K/S371E/F374V/A378F/Q494R/K506R/R512K/K521Q/I530V/V534A/V535L/S537T/D538A/S540G/Y541C/K551Q/A555M/K564R/L583V/T584A/D588Q/K590Q/G591A/M592V/L593M/K598R/Q599E/M602L/D604M/G605N/L606K/I609V/I611A/A612E/N613A)": "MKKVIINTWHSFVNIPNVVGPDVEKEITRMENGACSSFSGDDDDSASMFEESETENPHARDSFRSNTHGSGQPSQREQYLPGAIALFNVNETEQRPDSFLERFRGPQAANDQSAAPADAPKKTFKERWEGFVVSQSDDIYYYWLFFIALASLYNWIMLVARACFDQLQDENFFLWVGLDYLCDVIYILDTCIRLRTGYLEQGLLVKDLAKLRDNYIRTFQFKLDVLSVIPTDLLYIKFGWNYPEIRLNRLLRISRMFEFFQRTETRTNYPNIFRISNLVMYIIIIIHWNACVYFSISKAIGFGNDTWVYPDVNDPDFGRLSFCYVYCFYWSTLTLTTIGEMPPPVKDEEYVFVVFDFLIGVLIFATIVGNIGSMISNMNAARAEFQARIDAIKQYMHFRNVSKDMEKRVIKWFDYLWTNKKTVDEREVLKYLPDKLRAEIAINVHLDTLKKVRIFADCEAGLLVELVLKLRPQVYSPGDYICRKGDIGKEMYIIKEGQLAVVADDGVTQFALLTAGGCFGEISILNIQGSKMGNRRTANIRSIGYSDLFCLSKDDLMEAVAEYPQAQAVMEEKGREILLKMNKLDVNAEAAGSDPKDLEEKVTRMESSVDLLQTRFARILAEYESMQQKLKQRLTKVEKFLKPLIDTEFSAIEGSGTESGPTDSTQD", "assay_type": "cell-based, chimera of bovine CNG1, catfish CNG2 and rat CNG5"}, "X-α homomeric channels": {"biological_target": "T3, X-α homomeric channels (Bos taurus, UniProt Q00194, A200G/A344S/A378F/A555M/A614G/C169F/D157S/D193E/D538A/D604Q/DEL101-144/DEL91-95/E147F/E148K/E189Q/E196F/E230D/E231L/F201L/F214C/F374V/G160D/G591K/I156V/I181L/I182V/I235R/I530V/I609E/I611V/INS98[…]/K146T/K150R/K151W/K237N/K239I/K346C/K506R/K521Q/K551Q/K564R/K590Q/K596R/K598R/L195F/L199V/L210I/L351F/L583V/M175L/M213T/M592V/M602R/N161D/N165Y/N610S/N613A/P158Q/P173A/Q494R/Q599E/Q97T/R232A/R345F/R369K/R512K/S192D/S205C/S240R/S350C/S371E/S537T/S540G/T162I/T171A/T179I/T217L/T364M/T584A/V153G/V154F/V174S/V208I/V215I/V534A/V535L/Y194N/Y197L/Y541C)", "T3 sequence (Q00194 with tags, fused parts or gaps DEL91-95/Q97T/INS98[…]/DEL101-144/K146T/E147F/E148K/K150R/K151W/V153G/V154F/I156V/D157S/P158Q/G160D/N161D/T162I/N165Y/C169F/T171A/P173A/V174S/M175L/T179I/I181L/I182V/E189Q/S192D/D193E/Y194N/L195F/E196F/Y197L/L199V/A200G/F201L/S205C/V208I/L210I/M213T/F214C/V215I/T217L/E230D/E231L/R232A/I235R/K237N/K239I/S240R/A344S/R345F/K346C/S350C/L351F/T364M/R369K/S371E/F374V/A378F/Q494R/K506R/R512K/K521Q/I530V/V534A/V535L/S537T/D538A/S540G/Y541C/K551Q/A555M/K564R/L583V/T584A/K590Q/G591K/M592V/K596R/K598R/Q599E/M602R/D604Q/I609E/N610S/I611V/N613A/A614G)": "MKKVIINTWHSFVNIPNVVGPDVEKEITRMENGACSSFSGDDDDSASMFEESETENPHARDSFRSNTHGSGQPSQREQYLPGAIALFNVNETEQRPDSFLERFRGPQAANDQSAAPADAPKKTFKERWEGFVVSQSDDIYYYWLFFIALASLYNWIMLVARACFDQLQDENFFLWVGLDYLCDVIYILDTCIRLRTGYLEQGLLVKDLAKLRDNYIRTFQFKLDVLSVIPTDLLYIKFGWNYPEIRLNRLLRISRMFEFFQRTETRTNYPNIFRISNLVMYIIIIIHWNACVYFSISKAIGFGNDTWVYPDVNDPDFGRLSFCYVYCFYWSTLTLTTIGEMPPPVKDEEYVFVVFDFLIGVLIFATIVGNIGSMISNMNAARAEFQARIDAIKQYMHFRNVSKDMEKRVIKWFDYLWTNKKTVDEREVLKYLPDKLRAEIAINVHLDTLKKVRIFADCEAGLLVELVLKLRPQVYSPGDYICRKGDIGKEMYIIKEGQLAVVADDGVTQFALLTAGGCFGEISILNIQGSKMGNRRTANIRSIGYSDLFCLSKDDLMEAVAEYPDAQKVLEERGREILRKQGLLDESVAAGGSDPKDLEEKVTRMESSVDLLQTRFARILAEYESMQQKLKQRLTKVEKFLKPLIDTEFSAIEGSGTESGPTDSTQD", "assay_type": "cell-based, chimera of bovine CNG1 and catfish CNG2"}}}
{"smiles": "Nc1nc2c(ncn2[C@@H]2O[C@@H]3COP(=O)([O-])O[C@H]3[C@H]2O)c(=O)[nH]1.[Na+]", "note": "[cGMP]", "values": [{"measurement": "Desensitization", "setting": "X-βR/αC", "result": "No"}, {"measurement": "Hill coefficient h", "setting": "X-βR/αC; one patch (Fig. 6 B2), −100 mV, Hill fit ± SE", "result": "1.95 ± 0.22"}, {"measurement": "Desensitization", "setting": "X-αR/βC", "result": "Yes"}, {"measurement": "agonist concentration above which desensitization occurs", "setting": "X-αR/βC; biphasic dose–response curve", "result": "above 3 mM"}, {"measurement": "Hill coefficient h", "setting": "X-αR/βC; −100 mV, composite fit ± SEM, cGMP: excluding data >3 mM", "result": "1.120 ± 0.044"}, {"measurement": "agonist concentration at maximum of steady-state Popen dose–response curve", "setting": "X-α homomeric channels", "result": "~3", "unit": "mM"}, {"measurement": "Desensitization", "setting": "X-α homomeric channels; agonist up to 30 mM", "result": "Yes"}]}
